The subject of test [1] is td intron (group I intron of the thymidylate synthase gene of phage T4, truncated version). The test is classed as biochemical. The note with it: for IC50: read-out: concentration giving approximately 50% inhibition of the second splice step of the td intron; for ability to inhibit the group I intron splice reaction: antibiotics known to interact with 23S rRNA; for inhibition of group I splicing: at millimolar concentrations. How it is done: In vitro-transcribed and gel-purified^8 preRNA from a truncated version of the td intron^21 was incubated in a splicing buffer (50 mM Tris-HCl, pH 7.5, 5 mM MgCl2, 0.4 mM spermidine) for 10 min at 37° C. with GTP and gentamicin as indicated. Samples were separated on 5% acrylamide/7 M urea gels. RNA species are as follows: In-E2, intron-exon 2; L-ln, linear intron; E1-E2, ligated exons; E1, exon 1.
FIGS. 3a-c, Splicing experiments were done with the td intron as described in FIG. 2a, using several members of each family of aminoglycoside antibiotics (gentamicin, kanamycin and neomycin). Structures of the antibiotics can be found in Davies and Yagisaura in Biochemistry and Genetic Function Of Commercially Important Antibiotics, p. 329-354, Addison-Wesley, London, (1983) "Conc" is the antibiotic concentration at which about 50% inhibition was observed.
To monitor the splice process in vitro precursor RNA containing exon1, intron and exon2 was synthesized by in vitro transcription using bacteriophage RNA polymerase. During transcription, a radioactive labeled nucleotide was present in the nucleotide mixture and was incorporated in the RNA. This radioactive labeled RNA was then subjected to splicing conditions and after reaction the RNA splice products were separated from each other by electrophoresis on a denaturing acrylamide gel. The gel was dried and exposed for autoradiography.
Unspliced precursor RNA from the thymidylate synthase gene of the phage T4, which had been transcribed in vitro, and purified as previously described, (Schroeder, R., von Ahsen, U. & Belfort, M. Biochemistry 30, 3295-3303 (1991)) was incubated with increasing amounts of gentamicin under normal splicing conditions.
(§1) Materials and Methods: In vitro splicing experiments were performed with a truncated version of the td gene, containing 79 nt of exon I, 265 nt of intron sequences containing only the catalytic core (delta P6-2) and 21 nt of exon H (Schroeder, von Ahsen, & Belfort, 199 1, Biochemistry 30, 3295). The plasmids containing the Tetrahymena rRNA intron and the yeast mitochondrial cob intron I (the group II intron) were pBGST7 (Been & Cech, 1986, Cell 47, 207) and pBSbIl (Schmelzer and Schweyen, 1986, Cell 46, 557), respectively. The sunY intron is described in Michel et al. (1990, Genes & Development 4, 777). DNA was prepared by the alkaline-lysis procedure and linearized with appropriate restriction enzymes. Transcription was performed in a total volume of 20 μl at 30° C. for one (1) hour in buffer containing 40 mM Tris-HCl pH 7.5, 3 mM MgCl2, 0.4 mM spermidine, 1 mM of each NTP, 5 mM […], 10 units T7 RNA polymerase (Boehringer Mannheim), 10 μCi alpha-^35 S-CTP and 10 units RNAse inhibitor (Boehringer Mannheim). The reaction mixture was loaded on a 5% polyacrylamide/7 M urea gel. Precursor RNA was cut out of the gel and soaked in 400 μl elution buffer (10 mM Tris-HCl pH 7.5, 10 mM EDTA, 3.5 M NH4 OAc, 0.1% SDS) for two hours. After ethanol precipitation, the RNA was dissolved in H2 O-- before splicing experiments were performed the RNA was incubated in splicing buffer (40 mM Tris-HCl pH 7.5, 8 mM MgCl2, 0.4 mM spermidine) for 2 min at 56° C. For splicing of the suny intron and the Tetrahymena intron 50 mM NH4 Cl or 200 mM NaCl were added, respectively. Splicing was initiated by addition of guanosine at the appropriate concentration at 37° C. When splicing was to be inhibited by antibiotic, the antibiotic was added immediately before the guanosine. Splicing reactions were performed at 37° C. for 10'.

In test [2] the test system is sunY intron (shortened version, construct SYC1.3). The test is described as follows: In vitro splicing inhibition of the sunY group I intron (GTP incorporation assay). In kind it is biochemical, T4-phage. The method, then: as §1, with “DNA” for “Materials and Methods: In vitro splicing experiments were performed with a truncated version of the td gene, containing 79 nt of exon I, 265 nt of intron sequences containing only the catalytic core (delta P6-2) and 21 nt of exon H (Schroeder, von Ahsen, & Belfort, 199 1, Biochemistry 30, 3295). The plasmids containing the Tetrahymena rRNA intron and the yeast mitochondrial cob intron I (the group II intron) were pBGST7 (Been & Cech, 1986, Cell 47, 207) and pBSbIl (Schmelzer and Schweyen, 1986, Cell 46, 557), respectively. The sunY intron is described in Michel et al. (1990, Genes & Development 4, 777). DNA”, “10'. […] Samples were separated on 5% acrylamide/7 M urea gels.” for “10'.”

Where [3] appears, read: in vitro splicing, 37° C., 10 min.

Like-named read-outs stand apart in the source and are kept apart here.

21 compounds from patent publication US5900406A, “Use of antibiotics of the type 2-deoxystreptamine substituted with aminosugars to inhibit growth of microorganisms containing group I introns” (NZYM, Inc., priority 1991, dated 1999) can be followed below.

Regarding 2"-phospho-Gentamicin C, the IC50 in test [1] (setting [3]) was around 100 µM.

Regarding `CN[C@@H]1[C@@H](O)[C@@H](O[C@@H]2[C@@H](O)[C@H](O[C@H]3OC(CN)=CC[C@H]3N)[C@@H](N)C[C@H]2NC(C)=O)OC[C@]1(C)O` [1-N-acetyl-Sisomicin], the IC50 in test [1] (setting [3]) is around 100 µM.

On to `CN[C@@H]1[C@@H](O)[C@@H](O[C@@H]2[C@H](O)[C@H](O[C@H]3OC(CN)=CC[C@H]3N)[C@@H](N)C[C@H]2N)OC[C@]1(C)O` [5-epi-Sisomicin], for which the IC50 in test [1] (setting [3]) is around 0.5 µM.

Take `CN[C@@H]1[C@@H](O[C@H]2O[C@H](CO)[C@@H](N)[C@H](O)[C@H]2O)OC2C[C@@H](N)[C@@H](O[C@H]3[C@H](O)[C@@H](O)[C@H](N)C[C@@H]3N)OC2[C@@H]1O` (some centres unmarked) [Apramycin]: in test [1] (setting [3]), the IC50 was around 200 µM.

As for `CNC1C(O)C(OC2C(N)CC(N)C(OC3OC(CN)CCC3N)C2O)OCC1(C)O` (centres unmarked) [Dihydrosisomicin], the IC50 in test [1] (setting [3]) was around 100 µM.

As for `CN[C@@H]1[C@@H](O)[C@@H](O[C@@H]2[C@@H](O)[C@H](O)[C@@H](N)C[C@H]2N)OC[C@]1(C)O` [Garamine], the IC50 in test [1] (setting [3]) is around 200 µM.

For `CN[C@@H]1[C@@H](O)[C@@H](O[C@@H]2[C@@H](O)[C@H](O[C@H]3O[C@H](CN)[C@@H](O)[C@H](O)[C@H]3O)[C@@H](N)C[C@H]2N)OC[C@]1(C)O` [Gentamicin B], the IC50 in test [1] (setting [3]) was around 10 µM.

`NC[C@H]1O[C@H](O[C@H]2[C@H](O)[C@@H](O[C@H]3O[C@H](CO)[C@@H](O)[C@H](N)[C@H]3O)[C@H](N)C[C@@H]2N)[C@H](N)[C@@H](O)[C@@H]1O` [Kanamycin B]: the IC50 in test [1] (setting [3]) was around 10 µM.

Regarding `NC[C@@H]1O[C@H](O[C@H]2[C@@H](O)[C@H](O[C@@H]3[C@@H](O)[C@H](N)C[C@H](N)[C@H]3O[C@H]3O[C@H](CO)[C@@H](O)C[C@H]3N)O[C@@H]2CO)[C@H](N)[C@@H](O)[C@@H]1O[C@H]1O[C@H](CO)[C@@H](O)[C@H](O)[C@@H]1O` [Lividomycin], the IC50 in test [1] (setting [3]) is around 500 µM.

`NC[C@H]1O[C@H](O[C@H]2[C@H](O)[C@@H](O)[C@H](N)C[C@@H]2N)[C@H](N)[C@@H](O)[C@@H]1O` [Neamine]: the IC50 in test [1] (setting [3]) is around 200 µM.

As for `NC[C@@H]1O[C@H](O[C@H]2[C@@H](O)[C@H](O[C@@H]3[C@@H](O)[C@H](N)C[C@H](N)[C@H]3O[C@H]3O[C@H](CN)[C@@H](O)[C@H](O)[C@H]3N)O[C@@H]2CO)[C@H](N)[C@@H](O)[C@@H]1O` [Neomycin B], the “concentration to which the sunY intron is sensitive” value in test [2] came out at 10 AM. Moreover, the “lowest concentration with splicing inhibition activity” value in test [1] (activity at a concentration as low as) amounted to 0.5 µM. For the same compound, in test [1] (first step affected only at this concentration), the “antibiotic concentration affecting the first step of splicing” value amounted to 100 µM. Moreover, the IC50 in test [1] (setting [3]) is around 0.5 µM.

`NC[C@@H]1O[C@H](O[C@H]2[C@@H](O)[C@H](O[C@@H]3[C@@H](O)[C@H](N)C[C@H](N)[C@H]3O[C@H]3O[C@H](CO)[C@@H](O)[C@H](O)[C@H]3N)O[C@@H]2CO)[C@H](N)[C@@H](O)[C@@H]1O` [Paromomycin]: the IC50 in test [1] (setting [3]) was around 100 µM.

As to `CN[C@@H]1[C@@H](O)[C@@H](O[C@@H]2[C@@H](O)[C@H](O[C@H]3OC(CN)=CC[C@H]3N)[C@@H](N)C[C@H]2N)OC[C@]1(C)O` [Sisomicin], the IC50 in test [1] (setting [3]) is around 50 µM.

`O=C(N[C@H](CO)[C@H](O)c1ccc([N+](=O)[O-])cc1)C(Cl)Cl` [chloramphenicol]: in test [1], the “ability to inhibit the group I intron splice reaction” value is recorded as “not able to inhibit” and the “inhibition of group I splicing” value was “inactive”.

With `CC[C@H]1OC(=O)[C@H](C)[C@@H](O[C@H]2C[C@@](C)(OC)[C@@H](O)[C@H](C)O2)[C@H](C)[C@@H](O[C@@H]2O[C@H](C)C[C@H](N(C)C)[C@H]2O)[C@](C)(O)C[C@@H](C)C(=O)[C@H](C)[C@@H](O)[C@]1(C)O` [erythromycin], in test [1], the “ability to inhibit the group I intron splice reaction” value is recorded as “not able to inhibit” and the “inhibition of group I splicing” value was “inactive”.

`CN[C@H]1C[C@@H](N)[C@H](O)[C@@H](O[C@@H]2O[C@H](CO)[C@H](O)[C@@H]3OC4(O[C@H]23)O[C@H]([C@@H](N)CO)[C@H](O)[C@H](O)[C@H]4O)[C@@H]1O` (some centres unmarked) [hygromycin B]: the “inhibition of group I splicing” value in test [1] was “inactive”.

Take `C[C@H]1O[C@H](O[C@H]2[C@H](O)[C@@H](O)[C@@H](O)[C@H](O)[C@@H]2O)[C@@H](N)C[C@@H]1NC(=N)C(=O)O` [kasugamycin]: the “inhibition of group I splicing” value in test [1] was “inactive”.

Take `CN[C@@H]1[C@H](O)[C@H](NC)[C@H]2O[C@@]3(O)C(=O)C[C@@H](C)O[C@H]3O[C@@H]2[C@H]1O` [spectinomycin]: the “inhibition of group I splicing” value in test [1] was “inactive”.

Take `C=C[C@]1(C)C[C@@H](OC(=O)CSCCN(CC)CC)[C@]2(C)[C@H](C)CC[C@]3(CCC(=O)[C@H]32)[C@@H](C)[C@@H]1O` [tiamulin]: in test [1], the “ability to inhibit the group I intron splice reaction” value was “not able to inhibit”.

Regarding Gentamicin C, the IC50 in test [1] was around 1 µM.

noursethricin: the “ability to inhibit the group I intron splice reaction” value in test [1] is “not able to inhibit”.
